# Data as given in US8952024B2, “Herbicidal pyrimidone derivatives” (E I du Pont de Nemours and Company, priority 2009, dated 2015).
# Read-outs that look alike come from different tables or passages of the source.
# Experiments:
# Assay in all cases: Test B pre-/postemergence plant response
# Type in all cases: in vivo
# [1] = system: Italian ryegrass (Lolium multiflorum); details: for pest or weed control at 125 g/ha: 125 g ai/ha
# Outline: (§1)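 Greenhouse herbicide screen. Pre- and postemergence (1- to 4-leaf) spray of compound in solvent/surfactant mixture; loam–sand soil for pre, peat/vermiculite medium for post. Visual control rating 0–100 at 13 to 15 days after treatment.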
# [2] = system: Surinam grass (Brachiaria decumbens); details: for pest or weed control at 125 g/ha: 125 g ai/ha
# Outline: as §1
# [3] = system: blackgrass (Alopecurus myosuroides); details: for pest or weed control at 31 g/ha: 31 g ai/ha; for pest or weed control at 125 g/ha: 125 g ai/ha
# Outline: as §1
# corn (Zea mays) = details: for Corn plant response rating (crop injury, 0 = no effect, 100 = complete kill) at 31 g/ha: 31 g ai/ha; for Corn plant response rating (crop injury, 0 = no effect, 100 = complete kill) at 125 g/ha: 125 g ai/ha
# Outline: as §1
# [4] = system: downy bromegrass (Bromus tectorum); details: for pest or weed control at 31 g/ha: 31 g ai/ha; for pest or weed control at 125 g/ha: 125 g ai/ha
# Outline: as §1
# [5] = system: goosegrass (Eleusine indica); details: for pest or weed control at 31 g/ha: 31 g ai/ha; for pest or weed control at 125 g/ha: 125 g ai/ha
# Outline: as §1
# [6] = system: johnsongrass (Sorghum halepense); details: for pest or weed control at 31 g/ha: 31 g ai/ha; for pest or weed control at 125 g/ha: 125 g ai/ha
# Outline: as §1
# kochia (Kochia scoparia) = details: for pest or weed control at 31 g/ha: 31 g ai/ha; for pest or weed control at 125 g/ha: 125 g ai/ha
# Outline: as §1
# [7] = system: lambsquarters (Chenopodium album); details: for pest or weed control at 31 g/ha: 31 g ai/ha
# Outline: as §1
# [8] = 62 g ai/ha, postemergence, 0 is no effect, 100 is complete control, 13 to 15 days
# [9] = Preemergence, 250 g ai/ha, 0 to 100 scale
smiles,measurement,setting,value
"O=C1CCCC(O)=C1C(=O)c1cnc(-c2cccnc2)n(-c2ccccc2)c1=O [Compound 113, 5-[(2-hydroxy-6-oxo-1-cyclohexen-1-yl)carbonyl]-3-phenyl-2-(3-pyridinyl)-4(3H)-pyrimidone]","Ryegrass, Italian plant response rating (0 to 100 scale)",[1]; [8],45
same,pest or weed control at 125 g/ha,"[1]; Lolium multiflorum, post-emergence, Postemergence, scale 0 to 100 (0 no effect, 100 complete control), read-out: Plant response rating, Ryegrass, Italian",50%
same,pest or weed control at 250 g/ha,"[1]; Lolium multiflorum, post-emergence, Postemergence, 250 g ai/ha, scale 0 to 100 (0 no effect, 100 complete control), read-out: Plant response rating, Ryegrass, Italian",85%
same,pest or weed control at 31 g/ha,"[1]; Lolium multiflorum, pre-emergence, Preemergence, 31 g ai/ha, scale 0 to 100 (0 no effect, 100 complete control), read-out: Plant response rating, Ryegrass, Italian",0%
same,pest or weed control at 62 g/ha,"[1]; Lolium multiflorum, pre-emergence, Preemergence, 62 g ai/ha, scale 0 to 100 (0 no effect, 100 complete control), read-out: Plant response rating, Ryegrass, Italian",5%
same,pest or weed control at 125 g/ha,"[1]; Lolium multiflorum, pre-emergence, Preemergence, scale 0 to 100, 0 no effect, 100 complete control, read-out: Plant response rating, Ryegrass, Italian",5%
same,"Ryegrass, Italian plant response rating",[1]; [9],40
same,Surinam Grass plant response rating (0 to 100 scale),[2]; [8],85
same,Surinam Grass plant response rating,[2]; [9],98
same,pest or weed control at 125 g/ha,"[2]; Urochloa decumbens, post-emergence, Postemergence, scale 0 to 100 (0 no effect, 100 complete control), read-out: Plant response rating, Surinam Grass",90%
same,pest or weed control at 250 g/ha,"[2]; Urochloa decumbens, post-emergence, Postemergence, 250 g ai/ha, scale 0 to 100 (0 no effect, 100 complete control), read-out: Plant response rating, Surinam Grass",90%
same,pest or weed control at 31 g/ha,"[2]; Urochloa decumbens, pre-emergence, Preemergence, 31 g ai/ha, scale 0 to 100 (0 no effect, 100 complete control), read-out: Plant response rating, Surinam Grass",0%
same,pest or weed control at 62 g/ha,"[2]; Urochloa decumbens, pre-emergence, Preemergence, 62 g ai/ha, scale 0 to 100 (0 no effect, 100 complete control), read-out: Plant response rating, Surinam Grass",80%
same,pest or weed control at 125 g/ha,"[2]; Urochloa decumbens, pre-emergence, Preemergence, scale 0 to 100, 0 no effect, 100 complete control, read-out: Plant response rating, Surinam Grass",95%
same,Blackgrass plant response rating (0 to 100 scale),[3]; [8],0
same,pest or weed control at 31 g/ha,"[3]; Alopecurus myosuroides, post-emergence, 360 h, postemergence, scale 0 to 100, 0 is no effect, 100 is complete control, read-out: Plant response rating, Blackgrass",0%
same,pest or weed control at 125 g/ha,"[3]; Alopecurus myosuroides, post-emergence, 360 h, Postemergence, scale 0 to 100 (0 no effect, 100 complete control), read-out: Plant response rating, Blackgrass",5%
same,pest or weed control at 250 g/ha,"[3]; Alopecurus myosuroides, post-emergence, 360 h, Postemergence, 250 g ai/ha, scale 0 to 100 (0 no effect, 100 complete control), read-out: Plant response rating, Blackgrass",5%
same,pest or weed control at 31 g/ha,"[3]; Alopecurus myosuroides, pre-emergence, 360 h, Preemergence, scale 0 to 100 (0 no effect, 100 complete control), read-out: Plant response rating, Blackgrass",0%
same,pest or weed control at 62 g/ha,"[3]; Alopecurus myosuroides, pre-emergence, 360 h, Preemergence, 62 g ai/ha, scale 0 to 100, 0 no effect, 100 complete control, read-out: Plant response rating, Blackgrass",0%
same,pest or weed control at 125 g/ha,"[3]; Alopecurus myosuroides, pre-emergence, 360 h, Preemergence, scale 0 to 100, 0 no effect, 100 complete control, read-out: Plant response rating, Blackgrass",0%
same,Blackgrass plant response rating,[3]; [9],20
same,Corn plant response rating (0 to 100 scale),corn (Zea mays); [8],60
same,Corn plant response rating,corn (Zea mays); [9],0
same,"Corn plant response rating (crop injury, 0 = no effect, 100 = complete kill) at 31 g/ha","corn (Zea mays); Zea mays, post-emergence, postemergence, scale 0 to 100, 0 is no effect, 100 is complete control",25%
same,"Corn plant response rating (crop injury, 0 = no effect, 100 = complete kill) at 125 g/ha","corn (Zea mays); Zea mays, post-emergence, Postemergence, scale 0 to 100 (0 no effect, 100 complete control)",80%
same,"Corn plant response rating (crop injury, 0 = no effect, 100 = complete kill) at 250 g/ha","corn (Zea mays); Zea mays, post-emergence, Postemergence, 250 g ai/ha, scale 0 to 100 (0 no effect, 100 complete control)",85%
same,"Corn plant response rating (crop injury, 0 = no effect, 100 = complete kill) at 31 g/ha","corn (Zea mays); Zea mays, pre-emergence, Preemergence, scale 0 to 100 (0 no effect, 100 complete control)",0%
same,"Corn plant response rating (crop injury, 0 = no effect, 100 = complete kill) at 62 g/ha","corn (Zea mays); Zea mays, pre-emergence, Preemergence, 62 g ai/ha, scale 0 to 100, 0 no effect, 100 complete control",0%
same,"Corn plant response rating (crop injury, 0 = no effect, 100 = complete kill) at 125 g/ha","corn (Zea mays); Zea mays, pre-emergence, Preemergence, scale 0 to 100, 0 no effect, 100 complete control",0%
same,"Bromegrass, Downy plant response rating (0 to 100 scale)",[4]; [8],60
same,pest or weed control at 31 g/ha,"[4]; Bromus tectorum, post-emergence, postemergence, scale 0 to 100, 0 is no effect, 100 is complete control, read-out: Plant response rating, Bromegrass, Downy",5%
same,pest or weed control at 125 g/ha,"[4]; Bromus tectorum, post-emergence, Postemergence, scale 0 to 100 (0 no effect, 100 complete control), read-out: Plant response rating, Bromegrass, Downy",80%
same,pest or weed control at 250 g/ha,"[4]; Bromus tectorum, post-emergence, Postemergence, 250 g ai/ha, scale 0 to 100 (0 no effect, 100 complete control), read-out: Plant response rating, Bromegrass, Downy",90%
same,pest or weed control at 31 g/ha,"[4]; Bromus tectorum, pre-emergence, Preemergence, scale 0 to 100 (0 no effect, 100 complete control), read-out: Plant response rating, Bromegrass, Downy",0%
same,pest or weed control at 62 g/ha,"[4]; Bromus tectorum, pre-emergence, Preemergence, 62 g ai/ha, scale 0 to 100, 0 no effect, 100 complete control, read-out: Plant response rating, Bromegrass, Downy",10%
same,pest or weed control at 125 g/ha,"[4]; Bromus tectorum, pre-emergence, Preemergence, scale 0 to 100, 0 no effect, 100 complete control, read-out: Plant response rating, Bromegrass, Downy",10%
same,"Bromegrass, Downy plant response rating",[4]; [9],10
same,Goosegrass plant response rating (0 to 100 scale),[5]; [8],75
same,pest or weed control at 31 g/ha,"[5]; Eleusine indica, post-emergence, postemergence, scale 0 to 100, 0 is no effect, 100 is complete control, read-out: Plant response rating, Goosegrass",70%
same,pest or weed control at 125 g/ha,"[5]; Eleusine indica, post-emergence, Postemergence, scale 0 to 100 (0 no effect, 100 complete control), read-out: Plant response rating, Goosegrass",85%
same,pest or weed control at 250 g/ha,"[5]; Eleusine indica, post-emergence, Postemergence, 250 g ai/ha, scale 0 to 100 (0 no effect, 100 complete control), read-out: Plant response rating, Goosegrass",90%
same,pest or weed control at 31 g/ha,"[5]; Eleusine indica, pre-emergence, Preemergence, scale 0 to 100 (0 no effect, 100 complete control), read-out: Plant response rating, Goosegrass",75%
same,pest or weed control at 62 g/ha,"[5]; Eleusine indica, pre-emergence, Preemergence, 62 g ai/ha, scale 0 to 100, 0 no effect, 100 complete control, read-out: Plant response rating, Goosegrass",90%
same,pest or weed control at 125 g/ha,"[5]; Eleusine indica, pre-emergence, Preemergence, scale 0 to 100, 0 no effect, 100 complete control, read-out: Plant response rating, Goosegrass",100%
same,Goosegrass plant response rating,[5]; [9],100
same,Johnsongrass plant response rating (0 to 100 scale),[6]; [8],85
same,Johnsongrass plant response rating,[6]; [9],70
same,pest or weed control at 31 g/ha,"[6]; Sorghum halepense, post-emergence, postemergence, scale 0 to 100, 0 is no effect, 100 is complete control, read-out: Plant response rating, Johnsongrass",65%
same,pest or weed control at 125 g/ha,"[6]; Sorghum halepense, post-emergence, Postemergence, scale 0 to 100 (0 no effect, 100 complete control), read-out: Plant response rating, Johnsongrass",90%
same,pest or weed control at 250 g/ha,"[6]; Sorghum halepense, post-emergence, Postemergence, 250 g ai/ha, scale 0 to 100 (0 no effect, 100 complete control), read-out: Plant response rating, Johnsongrass",95%
same,pest or weed control at 31 g/ha,"[6]; Sorghum halepense, pre-emergence, Preemergence, scale 0 to 100 (0 no effect, 100 complete control), read-out: Plant response rating, Johnsongrass",0%
same,pest or weed control at 62 g/ha,"[6]; Sorghum halepense, pre-emergence, Preemergence, 62 g ai/ha, scale 0 to 100, 0 no effect, 100 complete control, read-out: Plant response rating, Johnsongrass",5%
same,pest or weed control at 125 g/ha,"[6]; Sorghum halepense, pre-emergence, Preemergence, scale 0 to 100, 0 no effect, 100 complete control, read-out: Plant response rating, Johnsongrass",60%
same,Kochia plant response rating (0 to 100 scale),kochia (Kochia scoparia); [8],100
same,pest or weed control at 31 g/ha,"kochia (Kochia scoparia); Bassia scoparia, post-emergence, postemergence, scale 0 to 100, 0 is no effect, 100 is complete control, read-out: Plant response rating, Kochia",98%
same,pest or weed control at 125 g/ha,"kochia (Kochia scoparia); Bassia scoparia, post-emergence, Postemergence, scale 0 to 100 (0 no effect, 100 complete control), read-out: Plant response rating, Kochia",100%
same,pest or weed control at 250 g/ha,"kochia (Kochia scoparia); Bassia scoparia, post-emergence, Postemergence, 250 g ai/ha, scale 0 to 100 (0 no effect, 100 complete control), read-out: Plant response rating, Kochia",100%
same,pest or weed control at 31 g/ha,"kochia (Kochia scoparia); Bassia scoparia, pre-emergence, Preemergence, scale 0 to 100 (0 no effect, 100 complete control), read-out: Plant response rating, Kochia",80%
same,pest or weed control at 62 g/ha,"kochia (Kochia scoparia); Bassia scoparia, pre-emergence, Preemergence, 62 g ai/ha, scale 0 to 100 (0 no effect, 100 complete control), read-out: Plant response rating, Kochia",80%
same,pest or weed control at 125 g/ha,"kochia (Kochia scoparia); Bassia scoparia, pre-emergence, Preemergence, scale 0 to 100, 0 no effect, 100 complete control, read-out: Plant response rating, Kochia",85%
same,Kochia plant response rating,kochia (Kochia scoparia); [9],90
same,Lambsquarters plant response rating (0 to 100 scale),[7]; [8],98
same,pest or weed control at 31 g/ha,"[7]; Chenopodium album, post-emergence, postemergence, scale 0 to 100, 0 is no effect, 100 is complete control, read-out: Plant response rating, Lambsquarters",95%
same,pest or weed control at 125 g/ha,"[7]; Chenopodium album, post-emergence, Postemergence, 125 g ai/ha, scale 0 to 100 (0 no effect, 100 complete control), read-out: Plant response rating, Lambsquarters",98%
same,pest or weed control at 250 g/ha,"[7]; Chenopodium album, post-emergence, Postemergence, 250 g ai/ha, scale 0 to 100 (0 no effect, 100 complete control), read-out: Plant response rating, Lambsquarters",98%
same,pest or weed control at 31 g/ha,"[7]; Chenopodium album, pre-emergence, Preemergence, scale 0 to 100 (0 no effect, 100 complete control), read-out: Plant response rating, Lambsquarters",98%
same,pest or weed control at 62 g/ha,"[7]; Chenopodium album, pre-emergence, Preemergence, 62 g ai/ha, scale 0 to 100, 0 no effect, 100 complete control, read-out: Plant response rating, Lambsquarters",100%
